# Data published in publication PMC5999115, “Anti-tumor activity of phenoxybenzamine and its inhibition of histone deacetylases” (PLoS ONE, 2018).
# Key:
# [1] = target: T1, HDAC4 (Homo sapiens, UniProt P56524); test: Fluorogenic HDAC deacetylase assay (BPS Bioscience); assay type: biochemical; conditions: read-out: % inhibition @ 10 uM
# T1 construct: purchased BPS Bioscience 50004
# [2] = tested on: LXFS DMS 273; test: Oncotest CellTiter-Blue cell viability assay, 72 hours; assay type: cell-based, human
# Experimental: (§1) Further studies with varying drug concentrations on selected human cell lines, in most cases those studied in the NCI60 screen, were conducted by Oncotest GmbH laboratories, Freiburg, Germany; Oncotest is a division of Charles River Laboratories. The dissolution procedure for PBZ and the cell culture […] was 72 hours; anti-tumor activity was determined with the CellTiter-Blue® Cell Viability Assay, Promega, Mannheim, Germany. The 50% Inhibitory (IC50) concentrations were determined. The results are the average of duplicate assays. Paclitaxel was included as a reference compound to confirm the integrity of the assays. See S1 Appendix for further details.
# (§2) “Cell lines were routinely passaged once or twice weekly and maintained in culture for up to 20 passages. Cells were grown at 37°C in a humidified atmosphere with 5% CO2 in RPMI 1640 medium (25 mM HEPES, with L-glutamine, #FG1385, Biochrom, Berlin, Germany) supplemented with 10% (v/v) fetal calf serum (Sigma, Taufkirchen, Germany) and 0.1 mg/mL gentamicin (Life Technologies, Karlsruhe, Germany).”
# [3] = tested on: LYXF DLBC SU-DHL-1; test: as above; assay type: cell-based, human
# Experimental: as §1, §2
# [4] = target: T2, HDAC3/NCOR2 (Homo sapiens, UniProt O15379); test: Fluorogenic HDAC deacetylase assay (BPS Bioscience); assay type: biochemical
# T2 construct: purchased BPS Bioscience 50003
# T2 sequence (O15379 whole entry): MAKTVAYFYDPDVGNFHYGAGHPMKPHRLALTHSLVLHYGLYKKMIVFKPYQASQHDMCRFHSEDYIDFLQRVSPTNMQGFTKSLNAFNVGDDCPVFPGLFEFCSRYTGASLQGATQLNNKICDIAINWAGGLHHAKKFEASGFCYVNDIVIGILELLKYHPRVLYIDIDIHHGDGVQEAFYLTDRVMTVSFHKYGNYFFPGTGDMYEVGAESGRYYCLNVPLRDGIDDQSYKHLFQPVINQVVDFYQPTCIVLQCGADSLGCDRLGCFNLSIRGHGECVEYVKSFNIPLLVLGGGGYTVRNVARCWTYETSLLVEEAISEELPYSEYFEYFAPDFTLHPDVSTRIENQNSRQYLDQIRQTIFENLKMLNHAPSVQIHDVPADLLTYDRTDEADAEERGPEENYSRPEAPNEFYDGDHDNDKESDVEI
# T2 sequence (Q9Y618 395-489 partner limits assumed): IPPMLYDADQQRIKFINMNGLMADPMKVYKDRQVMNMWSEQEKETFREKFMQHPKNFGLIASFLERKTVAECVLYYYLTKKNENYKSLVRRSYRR
# [5] = Aqueous solubility in the NCI60 assay conditions; assay type: physicochemical
# From the text: The reason for the lack of activity after dissolution in DMSO has not been pursued further, but DMSO was eliminated in all subsequent assay systems.
# [6] = LXFS DMS273, 1% FCS, study P495C
# [7] = LXFS DMS273, 10% FCS, study P495A
# [8] = LYXF SU-DHL-1, 1% FCS, study P495C
# [9] = LYXF SU-DHL-1, 10% FCS, study P495B
# T1 sequence (P56524 627-1084 limits assumed): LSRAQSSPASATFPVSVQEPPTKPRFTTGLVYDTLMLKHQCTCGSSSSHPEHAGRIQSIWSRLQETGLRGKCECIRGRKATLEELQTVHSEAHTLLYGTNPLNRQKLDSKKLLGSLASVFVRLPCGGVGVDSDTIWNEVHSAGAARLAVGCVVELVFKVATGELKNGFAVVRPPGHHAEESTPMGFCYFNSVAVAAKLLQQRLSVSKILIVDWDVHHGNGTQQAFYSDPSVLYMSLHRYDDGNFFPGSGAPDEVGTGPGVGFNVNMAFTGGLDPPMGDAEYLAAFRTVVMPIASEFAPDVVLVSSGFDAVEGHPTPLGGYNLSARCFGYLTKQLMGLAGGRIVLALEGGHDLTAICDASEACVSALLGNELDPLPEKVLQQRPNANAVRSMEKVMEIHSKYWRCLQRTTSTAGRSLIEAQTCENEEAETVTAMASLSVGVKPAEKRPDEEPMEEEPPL
structure (smiles),measurement,setting,value
"CC(COc1ccccc1)N(CCCl)Cc1ccccc1 (stereo not shown) [PBZ, phenoxybenzamine]",inhibition at 10 µM,[1],25%
same,IC50,"[2]; Homo sapiens, LXFS DMS 273 Small-cell lung, 1% FCS",99.8 µM
same,"Test/Control (%) at Drug Concentration [uM] 1,0E+00",[2]; [6],104%
same,"Test/Control (%) at Drug Concentration [uM] 1,0E+01",[2]; [6],91%
same,"Test/Control (%) at Drug Concentration [uM] 1,0E+02",[2]; [6],49%
same,"Test/Control (%) at Drug Concentration [uM] 3,2E+00",[2]; [6],101%
same,"Test/Control (%) at Drug Concentration [uM] 3,2E+01",[2]; [6],100%
same,"Test/Control (%) at Drug Concentration [uM] 1,0E+00",[2]; [7],76%
same,"Test/Control (%) at Drug Concentration [uM] 1,0E+01",[2]; [7],82%
same,"Test/Control (%) at Drug Concentration [uM] 1,0E+02",[2]; [7],105%
same,"Test/Control (%) at Drug Concentration [uM] 1,0E-01",[2]; [7],81%
same,"Test/Control (%) at Drug Concentration [uM] 1,0E-02",[2]; [7],75%
same,"Test/Control (%) at Drug Concentration [uM] 3,2E+00",[2]; [7],87%
same,"Test/Control (%) at Drug Concentration [uM] 3,2E+01",[2]; [7],100%
same,"Test/Control (%) at Drug Concentration [uM] 3,2E-01",[2]; [7],80%
same,"Test/Control (%) at Drug Concentration [uM] 3,2E-02",[2]; [7],74%
same,"Test/Control (%) at Drug Concentration [uM] 3,2E-03",[2]; [7],83%
same,IC50,"[3]; Homo sapiens, LYXFDLBC SU-DHL-1 Lymphoma, 1% FCS",29.5 µM
same,"Test/Control (%) at Drug Concentration [uM] 1,0E+00",[3]; [8],97%
same,"Test/Control (%) at Drug Concentration [uM] 1,0E+01",[3]; [8],91%
same,"Test/Control (%) at Drug Concentration [uM] 1,0E+02",[3]; [8],7%
same,"Test/Control (%) at Drug Concentration [uM] 3,2E+00",[3]; [8],96%
same,"Test/Control (%) at Drug Concentration [uM] 3,2E+01",[3]; [8],45%
same,"Test/Control (%) at Drug Concentration [uM] 1,0E+00",[3]; [9],98%
same,"Test/Control (%) at Drug Concentration [uM] 1,0E+01",[3]; [9],100%
same,"Test/Control (%) at Drug Concentration [uM] 1,0E+02",[3]; [9],0%
same,"Test/Control (%) at Drug Concentration [uM] 1,0E-01",[3]; [9],100%
same,"Test/Control (%) at Drug Concentration [uM] 1,0E-02",[3]; [9],100%
same,"Test/Control (%) at Drug Concentration [uM] 1,0E-03",[3]; [9],100%
same,"Test/Control (%) at Drug Concentration [uM] 3,2E+00",[3]; [9],100%
same,"Test/Control (%) at Drug Concentration [uM] 3,2E+01",[3]; [9],94%
same,% inhibition @ 10 uM,"[4]; HDAC3/NCOR2, 10 µM",~30%
same,inhibition at 10 µM,"[4]; read-out: % inhibition @ 10 uM, HDAC3/NCOR2",31%
same,aqueous solubility,[5],adequate aqueous solubility
